According to patent publication US10954228B2 (NATIONAL INSTITUTES OF HEALTH, UNITED STATES DEPARTMENT OF …, priority 2016, dated 2021):

Target: Human LDHA (Homo sapiens (Human), UniProt P00338)
Assay: human LDHA primary biochemical assay
Conditions: biochemical LDHA inhibitory activity, assay of Example 1; activity level classes defined in nM
From the text: This example describes a human LDHA primary biochemical assay employed in the characterization of a compound of formula (I) in an embodiment of the invention.
Test compounds were placed in a Greiner Bio-One (Monroe, N.C.) 1536-well black solid bottom assay plate. 200 millimolar (mM) Tris HCl, pH 7.4, 100 micromolar (μM) EDTA and 0.01% TWEEN-20™, final concentration, was used as the assay buffer. The LDHA reagent was 2 nanomolar (nM) Human LDHA (Meridian Life Science, Inc., Memphis, Tenn.), final concentration, in assay buffer. The substrate reagent was 0.06 mM NADH and 0.2 mM sodium pyruvate, final concentration, in assay buffer. The resazurin/diaphorase coupling reagent was 0.037 mM resazurin and 0.133 milligrams per milliliter (mg/mL) diaphorase, final concentration, in assay buffer. The inhibition of LDHA activity was measured by fluorescence emission.

IC50 [nM]	SMILES
< 100	COc1ccc(-c2cc(-c3nn(-c4nc(C(=O)O)cs4)c(CC4CC4)c3Cc3ccc(S(N)(=O)=O)c(F)c3)ccc2F)cc1Cl [Compound 191, 2-(3-(3′-chloro-6-fluoro-4′-methoxy-[1,1′-biphenyl]-3-yl)-5-(cyclopropylmethyl)-4-(3-fluoro-4-sulfamoylbenzyl)-1H-pyrazol-1-yl)thiazole-4-carboxylic acid]
> 57000	Cc1ccc(C#Cc2cccc(-c3nn(-c4nc(CO)cs4)c(CC4CC4)c3Cc3ccc(S(N)(=O)=O)c(F)c3)c2)s1 [Compound 181, 4-((5-(cyclopropylmethyl)-1-(4-(hydroxymethyl)thiazol-2-yl)-3-(3-((5-methylthiophen-2-yl)ethynyl)phenyl)-1H-pyrazol-4-yl)methyl)-2-fluorobenzenesulfonamide]
100 to 1000	NS(=O)(=O)c1ccc(Cc2c(-c3ccc(F)c(-c4ccc(C5CC5)c(F)c4)c3)nn(-c3nc(C(=O)O)cs3)c2CC2CC2)cc1F [Compound 212, 2-{3-[3-(4-cyclopropyl-3-fluorophenyl)-4-fluorophenyl]-5-(cyclopropylmethyl)-4-[(3-fluoro-4-sulfamoylphenyl)methyl]pyrazol-1-yl}-1,3-thiazole-4-carboxylic acid]
< 100	Cc1ccc(-c2cccc(-c3nn(-c4nc(C(=O)O)cs4)c(CC4CC4)c3Cc3ccc(S(N)(=O)=O)c(F)c3)c2)cn1 [Compound 204, 2-(5-(cyclopropylmethyl)-4-(3-fluoro-4-sulfamoylbenzyl)-3-(3-(6-methylpyridin-3-yl)phenyl)-1H-pyrazol-1-yl)thiazole-4-carboxylic acid]
100 to 1000	CC(C)c1ccc(-c2cccc(-c3nn(-c4nc(C(=O)O)cs4)c(CC4CC4)c3Cc3ccc(S(N)(=O)=O)c(F)c3)c2)cc1F [Compound 230, 2-(5-(cyclopropylmethyl)-3-(3′-fluoro-4′-isopropyl-[1,1′-biphenyl]-3-yl)-4-(3-fluoro-4-sulfamoylbenzyl)-1H-pyrazol-1-yl)thiazole-4-carboxylic acid]
100 to 1000	Cc1cc(C#Cc2cccc(-c3nn(-c4nc(C(=O)O)cs4)c(CC4CC4)c3Cc3ccc(S(N)(=O)=O)c(F)c3)c2)c(C)s1 [Compound 241, 2-(5-(cyclopropylmethyl)-3-(3-((2,5-dimethylthiophen-3-yl)ethynyl)phenyl)-4-(3-fluoro-4-sulfamoylbenzyl)-1H-pyrazol-1-yl)thiazole-4-carboxylic acid]
< 100	NS(=O)(=O)c1ccc(Cc2c(-c3ccc(F)c(-c4ncc[nH]4)c3)nn(-c3nc(C(=O)O)cs3)c2CC2CC2)cc1F [Compound 159, 2-(5-(cyclopropylmethyl)-3-(4-fluoro-3-(1H-imidazol-2-yl)phenyl)-4-(3-fluoro-4-sulfamoylbenzyl)-1H-pyrazol-1-yl)thiazole-4-carboxylic acid]
< 100	NS(=O)(=O)c1ccc(Cc2c(-c3ccc(F)c(N4CCCC4=O)c3)nn(-c3nc(C(=O)O)cs3)c2CC2CC2)cc1F [Compound 202, 2-(5-(cyclopropylmethyl)-3-(4-fluoro-3-(2-oxopyrrolidin-1-yl)phenyl)-4-(3-fluoro-4-sulfamoylbenzyl)-1H-pyrazol-1-yl)thiazole-4-carboxylic acid]
< 100	N#Cc1cccc(-c2cc(-c3nn(-c4nc(C(=O)O)cs4)c(CC4CC4)c3Cc3ccc(S(N)(=O)=O)c(F)c3)ccc2F)c1 [Compound 200, 2-(3-(3′-cyano-6-fluoro-[1,1′-biphenyl]-3-yl)-5-(cyclopropylmethyl)-4-(3-fluoro-4-sulfamoylbenzyl)-1H-pyrazol-1-yl)thiazole-4-carboxylic acid]
100 to 1000	Cc1ccc(-c2ccc(-c3cccc(-c4nn(-c5nc(C(=O)O)cs5)c(CC5CC5)c4Cc4ccc(S(N)(=O)=O)c(F)c4)c3)cc2)s1 [Compound 208, 2-(5-(cyclopropylmethyl)-4-(3-fluoro-4-sulfamoylbenzyl)-3-(4′-(5-methylthiophen-2-yl)-[1,1′-biphenyl]-3-yl)-1H-pyrazol-1-yl)thiazole-4-carboxylic acid]
100 to 1000	Cc1cc(C#Cc2cccc(-c3nn(-c4nc(C(=O)O)cs4)c(CCC4CC4)c3Cc3ccc(S(N)(=O)=O)c(F)c3)c2)c(C)s1 [Compound 238, 2-(5-(2-cyclopropylethyl)-3-(3-((2,5-dimethylthiophen-3-yl)ethynyl)phenyl)-4-(3-fluoro-4-sulfamoylbenzyl)-1H-pyrazol-1-yl)thiazole-4-carboxylic acid]
< 100	NS(=O)(=O)c1ccc(Cc2c(-c3ccc(F)c(-c4ccc(F)c(F)c4)c3)nn(-c3nc(C(=O)O)cs3)c2CC2CC2)cc1F [Compound 136, 2-(5-(cyclopropylmethyl)-4-(3-fluoro-4-sulfamoylbenzyl)-3-(3′,4′,6-trifluoro-[1,1′-biphenyl]-3-yl)-1H-pyrazol-1-yl)thiazole-4-carboxylic acid]
< 100	NS(=O)(=O)c1ccc(Cc2c(-c3cccc(-c4ccc(O)c(F)c4)c3)nn(-c3nc(C(=O)O)cs3)c2CC2CC2)cc1F [Compound 229, 2-(5-(cyclopropylmethyl)-3-(3′-fluoro-4′-hydroxy-[1,1′-biphenyl]-3-yl)-4-(3-fluoro-4-sulfamoylbenzyl)-1H-pyrazol-1-yl)thiazole-4-carboxylic acid]
< 100	NS(=O)(=O)c1ccc(Cc2c(-c3cccc(-c4ccc5c(c4)CCC5)c3)nn(-c3nc(C(=O)O)cs3)c2CC2CC2)cc1F [Compound 220, 2-(5-(cyclopropylmethyl)-3-(3-(2,3-dihydro-1H-inden-5-yl)phenyl)-4-(3-fluoro-4-sulfamoylbenzyl)-1H-pyrazol-1-yl)thiazole-4-carboxylic acid]
< 100	NS(=O)(=O)c1ccc(Cc2c(-c3ccc(F)c(NC(=O)c4ccccc4)c3)nn(-c3nc(C(=O)O)cs3)c2CC2CC2)cc1F [Compound 152, 2-(3-(3-benzamido-4-fluorophenyl)-5-(cyclopropylmethyl)-4-(3-fluoro-4-sulfamoylbenzyl)-1H-pyrazol-1-yl)thiazole-4-carboxylic acid]
< 100	Cc1cnc(-c2cccc(-c3nn(-c4nc(C(=O)O)cs4)c(CC4CC4)c3Cc3ccc(S(N)(=O)=O)c(F)c3)c2)nc1 [Compound 217]
100 to 1000	COc1ccc(-c2cccc(-c3nn(-c4nc(C(=O)O)cs4)c(CC4CC4)c3Cc3ccc(S(N)(=O)=O)c(F)c3)c2)cc1Cl [Compound 172, 2-(3-(3′-chloro-4′-methoxy-[1,1′-biphenyl]-3-yl)-5-(cyclopropylmethyl)-4-(3-fluoro-4-sulfamoylbenzyl)-1H-pyrazol-1-yl)thiazole-4-carboxylic acid]
100 to 1000	CCc1cc(-c2cc(-c3nn(-c4nc(C(=O)O)cs4)c(CC4CC4)c3Cc3ccc(S(N)(=O)=O)c(F)c3)ccc2F)ccc1OC [Compound 223, 2-(5-(cyclopropylmethyl)-3-(3′-ethyl-6-fluoro-4′-methoxy-[1,1′-biphenyl]-3-yl)-4-(3-fluoro-4-sulfamoylbenzyl)-1H-pyrazol-1-yl)thiazole-4-carboxylic acid]
100 to 1000	CC(C)(C)c1cccc(-c2cc(-c3nn(-c4nc(C(=O)O)cs4)c(CC4CC4)c3Cc3ccc(S(N)(=O)=O)c(F)c3)ccc2F)c1 [Compound 192, 2-(3-(3′-(tert-butyl)-6-fluoro-[1,1′-biphenyl]-3-yl)-5-(cyclopropylmethyl)-4-(3-fluoro-4-sulfamoylbenzyl)-1H-pyrazol-1-yl)thiazole-4-carboxylic acid]
100 to 1000	Cc1ccc(C#Cc2cccc(-c3nn(-c4nc(C(=O)O)cs4)c(CCCC4CC4)c3Cc3ccc(S(N)(=O)=O)c(F)c3)c2)s1 [Compound 248, 2-(5-(3-cyclopropylpropyl)-4-(3-fluoro-4-sulfamoylbenzyl)-3-(3-((5-methylthiophen-2-yl)ethynyl)phenyl)-1H-pyrazol-1-yl)thiazole-4-carboxylic acid]
100 to 1000	CC(C)c1ccc(-c2cccc(-c3nn(-c4nc(C(=O)O)cs4)c(CCC4CC4)c3Cc3ccc(S(N)(=O)=O)c(F)c3)c2)cc1 [Compound 206, 2-(5-(2-cyclopropylethyl)-4-(3-fluoro-4-sulfamoylbenzyl)-3-(4′-isopropyl-[1,1′-biphenyl]-3-yl)-1H-pyrazol-1-yl)thiazole-4-carboxylic acid]
100 to 1000	Cc1cc(C#Cc2cccc(-c3nn(-c4nc(C(=O)O)cs4)c(CCC4CC4)c3Cc3ccc(S(N)(=O)=O)c(F)c3)c2)cs1 [Compound 239, 2-(5-(2-cyclopropylethyl)-4-(3-fluoro-4-sulfamoylbenzyl)-3-(3-((5-methylthiophen-3-yl)ethynyl)phenyl)-1H-pyrazol-1-yl)thiazole-4-carboxylic acid]
100 to 1000	Cc1ccc(C#Cc2ccc(-c3nn(-c4nc(C(=O)O)cs4)c(CC4CC4)c3Cc3ccc(S(N)(=O)=O)c(F)c3)s2)s1 [Compound 233, 2-(5-(cyclopropylmethyl)-4-(3-fluoro-4-sulfamoylbenzyl)-3-(5-((5-methylthiophen-2-yl)ethynyl)thiophen-2-yl)-1H-pyrazol-1-yl)thiazole-4-carboxylic acid]
< 100	Cc1cc(-c2cccc(-c3nn(-c4nc(C(=O)O)cs4)c(CC4CC4)c3Cc3ccc(S(N)(=O)=O)c(F)c3)c2)ccc1O [Compound 228, 2-(5-(cyclopropylmethyl)-4-(3-fluoro-4-sulfamoylbenzyl)-3-(4′-hydroxy-3′-methyl-[1,1′-biphenyl]-3-yl)-1H-pyrazol-1-yl)thiazole-4-carboxylic acid]
1000 to 57000	Cc1ccc(C#Cc2cccc(-c3nn(-c4nc(C(=O)O)cs4)c(C(C4CC4)C4CC4)c3Cc3ccc([S+](N)(=O)[O-])c(F)c3)c2)s1 [Compound 126, 2-(5-(dicyclopropylmethyl)-4-(3-fluoro-4-sulfamoylbenzyl)-3-(3-((5-methylthiophen-2-yl)ethynyl)phenyl)-1H-pyrazol-1-yl) thiazole-4-carboxylic acid]
